From paper PMC7313430, “Heme-Dependent ER Stress Apoptosis: A Mechanism for the Selective Toxicity of the Dihydroartemisinin, NSC735847, in Colorectal Cancer Cells” (Frontiers in Oncology, 2020)

Legend:
HT29 cells = experiment: MTS cell viability assay, colon cancer cells HT29; type: cell-based, human
Description: (§1) The human colon cancer cell lines HT29 and HCT116 were cultured in McCoy's 5A medium (Sigma Aldrich, St. Louis, MO) containing 10% heat-inactivated fetal bovine serum (FBS), penicillin (100 units/ml), and streptomycin (100 μg/ml). The non-tumorigenic colon cell line, FHC, was cultured in DMEM: F12 (1:1) medium supplemented with 10% heat inactivated FBS, 25 mM HEPES (Thermo Fisher Scientific Inc., IL), 10 ng/ml cholera toxin (Sigma Aldrich, St. Louis, MO), 0.005 mg/ml insulin (Thermo Fisher Scientific Inc., IL), 0.005 mg/ml, transferrin (Sigma Aldrich, St. Louis, MO), 100 ng/ml hydrocortisone (Sigma Aldrich, St. Louis, MO), 20 ng/mL human recombinant epidermal growth factor (Thermo Fisher Scientific Inc., IL), 100 units/ml penicillin, and 100 μg/ml streptomycin.
(§2) Cells were cultured in 96-well-plates for 48 h before treatment. Serum-free media containing different agents was added to the cells at the concentration and time period described in the figure legend. MTS reagent (Promega, Madison, WI) was then added to each well and the absorbance was measured at 495 nm as directed by the manufacturer. In the presence of MTS reagent, the absorbance reading is proportional to the number of viable cells. The half-maximal inhibitory concentration (IC50) of the tested compounds is the concentration that reduces the viability of cells by 50%. IC50 was calculated after 24 h of treatment ([30], [31]) as described previously ([32]–[34]) from dose-response curves (log drug concentration vs. percentage viability from untreated cells) generated by non-linear regression analysis with GraphPad Prism 5 software (GraphPad Software, San Diego, California).

HCT116 cells = experiment: MTS cell viability assay, colon cancer cells HCT116; type: cell-based, human
Description: as §1, §2

[1] = tested on: P-PERK, P-eIF2α, CHOP10, PARP, caspase-3, ferritin in HT29 cells; experiment: Western blot of ER stress and apoptosis proteins in HT29; type: cell-based, human
Description: (§3) Western blot analysis was conducted as described previously ([35]). Briefly, the cells were cultured in 100 mm dishes for 48 h before treatment. The cells were then treated as described in the figure legends. For vehicle-treated samples, DMSO was added to serum-free culture medium at a maximum concentration of 0.1% (v/v). After experimentation, the cells were washed twice with phosphate buffer saline (PBS) and then 100 μl of Triton lysis buffer [25 mM HEPES, 100 mM NaCl, 1 mM EDTA, 10% (v/v) glycerol, 1% (v/v) Triton X-100], containing protease and […] inhibitors, was added to the cells. Protein concentrations were determined by using BCA reagents (Thermo Fisher Scientific Inc., IL). Equal concentrations of each sample were loaded onto SDS–PAGE gels and protein bands transferred to nitrocellulose membranes using semi-dry transfer cells (TRANS-BLOTSD; Bio-Rad Laboratories, Hercules, CA). The membranes were incubated for 2 h at room temperature in Odyssey blocking buffer (LI-COR Biosciences, Lincoln, NE). Membranes were then incubated overnight at 4C with primary antibody followed by 1 h of incubation at room temperature with secondary antibody. All primary antibodies were used at a dilution of 1:1,000 except anti-GAPDH and anti-CHOP10 antibodies which were used at 1:10,000 and 1:500 dilutions, respectively. All secondary antibodies were used at a dilution of 1:15,000. Protein bands were visualized using Odyssey® CLx digital fluorescence imaging system (LI-COR, Lincoln, Nebraska). Band intensities were quantified by using ImageJ software ([36]).

[2] = tested on: PERK, eIF2a, CHOP10, PARP, caspase 3 in FHC cells; experiment: Western blot of ER stress and apoptosis proteins in FHC; type: cell-based, human; settings: 10 μM, 1-16 h
Description: as §3, with “All primary antibodies were used at a dilution of 1:1,000 except anti-GAPDH and anti-CHOP10 antibodies which were used at 1:10,000 and 1:500 dilutions, respectively. All secondary antibodies were used at a dilution of 1:15,000.” left out

[3] = tested on: reactive oxygen species in HT29 cells; experiment: Oxidative stress measurement with CM-H2DCFDA (DCF); type: cell-based, human; settings: HT29, 10 μM, 8 h
Description: Oxidative stress was measured in cultured cells by using the probe, chloromethyl-2′,7′ dichlorodihydrofluorescein diacetate (CM-H2DCFDA or DCF) purchased from Life Technologies (Grand Island, NY). […] The cells were loaded with 5 μM DCF in phenol red-free, serum-free medium for 30 min and then the cells were treated with the appropriate drug for the indicated period of time. The cells were then trypsinized and resuspended in serum-containing, phenol red-free medium. The fluorescence of DCF was measured using an Accuri C6 flow cytometer (BD Accuri Cytometers, Ann Arbor, MI) at an excitation wavelength of 488 and emission of 533 ± 30 nm.

[4] = tested on: subcutaneous or orthotopic non-small cell lung cancer lesions; settings: athymic nude mice with subcutaneous or orthotopic non-small cell lung cancer lesions; cited from earlier work
[5] = MTS, 24 h, single agents or combinations

CC1CCC2C(C)C(OCC(COC3OC4OC5(C)CCC6C(C)CCC(C3C)C46OO5)=NO)OC3OC4(C)CCC1C32OO4 (stereo not drawn) [compound (3)]
IC50 (HT29 cells; Homo sapiens, HT-29, MTS viability, 24 h treatment): 11 µM
cell death / survival of HT29 cells (HT29 cells; [5]): induced death in a concentration-dependent manner
IC50 (HCT116 cells; Homo sapiens, HCT-116, MTS viability, 24 h treatment): 11.8 µM
cell death / survival of HCT116 cells (HCT116 cells; [5]): induced death in a concentration-dependent manner
CHOP10 expression ([1]; HT29, 10 μM, 6 and 8 h): marked increase
cleavage of PARP ([1]; HT29, 10 μM, 8 and 16 h): stimulated the cleavage
cleavage of caspase-3 ([1]; HT29, 10 μM, 8 and 16 h): stimulated the cleavage
phosphorylation of PERK, increase compared to vehicle-treated cells ([1]; HT-29, 10 μM, 1 and 2 h): more than 7 fold
phosphorylation of eIF2α, increase compared to vehicle-treated cells ([1]; HT-29, 10 μM, 1 and 2 h): more than 7 fold
activation of PERK, eIF2a, CHOP10, PARP, caspase 3 in FHC [2]: did not increase the activation
intracellular oxidative stress (DCF fluorescence) [3]: increased the intracellular oxidative stress levels
body weight of tumor-bearing mice [4]: did not cause significant changes in the body weight
